Assay results as given in patent publication US7838676B2, “Beta-secretase modulators and methods of use” (Amgen Inc., priority 2005, dated 2010).

System: Aβ40 in conditioned medium of APP containing cells
Assay: BACE Cell-Based Assay (Aβ40 sandwich ELISA, HEK-293 cells stably expressing APP)
Conditions: Homo sapiens, HEK293, inhibition of Aβ 40 in conditioned media after 24 h
Procedure: The cell-based assay measures inhibition or reduction of Aβ40 in conditioned medium of test compound treated APP containing cells.
Cells stably expressing Amyloid Precursor Protein (APP) were plated at a density of 40K cells/well in 96 well plates (Costar). The cells were cultivated for 24 h at 37° C. and 5% CO2 in DMEM supplemented with 10% FBS. The test compounds were then added to cells in 10-point dose response concentrations with the starting concentration being either 100 μM or 10 μM. The compounds were diluted from stock solutions in DMSO and the final DMSO concentration of the test compounds on cells was 0.1%. After 24 h of incubation with the test compounds the supernatant conditioned media was collected and the Aβ 40 levels were determined using a sandwich ELISA. The IC50 of the compound was calculated from the percent of control or percent inhibition of Aβ 40 as a function of the concentration of the test compound.
The sandwich ELISA to detect Aβ 40 was performed in 96 well microtiter plates, which were pre-treated with goat anti-rabbit IgG (Pierce). The capture and detecting antibody pair that were used to detect Aβ 40 from cell supernatants were affinity purified pAb40 (Biosource) and biotinylated 6E10 (Signet Labs Inc.), respectively. The optimal concentration for the pAb40 antibody was 3 μg/ml in Superblock/TBS (Pierce) that was supplemented with 0.05% Tween 20 (Sigma). Optimal concentration for the detection antibody 6E10-biotinylated was 0.5 μg/ml in Superblock/TBS (Pierce) that had been supplemented with 2% normal goat serum and 2% normal mouse serum.
Cellular supernatants were incubated with the capture antibody for 3 h at 4° C., followed by 3 wash steps in TBS-tween (0.05%). The detecting antibody incubation was for 2 h at 4° C., again followed by the wash steps as described previously. The final readout of the ELISA is Time-Resolved Fluorescence (counts per minute) using Delfia reagents Streptavidin-Europium and Enhancement solutions (Perkin Elmer) and the Victor 2 multilabel counter (Perkin Elmer).

IC50, ≤ 5 µM:
CCc1ccc2c(c1)[C@@H](NC[C@@H](O)[C@H](Cc1ccccc1)NC(=O)c1cncnc1)CC1(CCC1)O2 [Example 19, N-((2S,3R)-4-((S)-6-ethyl-2,2-spirocyclobutylchroman-4-ylamino)-3-hydroxy-1-phenylbutan-2-yl)pyrimidine-5-carboxamide]
CCc1ccc2c(c1)[C@@H](NC[C@@H](O)[C@H](Cc1ccccc1)NC(=O)c1cc(N3CCCC3=O)ccc1OC)CC1(CCCC1)O2 [Example 30, N-((2S,3R)-4-((S)-6-ethyl-2,2-spirocyclopentylchroman-4-ylamino)-3-hydroxy-1-phenylbutan-2-yl)-2-methoxy-5-(2-oxopyrrolidin-1-yl)benzamide]
CCc1ccc2c(c1)[C@@H](NC[C@@H](O)[C@H](Cc1ccccc1)NC(=O)c1cccc(-c3ccccn3)c1)CC1(CCCC1)O2 [Example 106]
Cc1cnc2c(c1)[C@@H](NC[C@@H](O)[C@H](Cc1cc(F)cc(F)c1)NC(=O)c1ccc(N3CCCC3=O)c(F)c1)CC1(CCC1)C2 [Example 146, N-((1S,2R)-1-((3,5-difluorophenyl)methyl)-2-hydroxy-3-(((5′S)-3′-methyl-5′,8′-dihydro-6′H-spiro[cyclobutane-1,7′-quinolin]-5′-yl)amino)propyl)-3-fluoro-4-(2-oxo-1-pyrrolidinyl)benzamide]
O=C(N[C@@H](Cc1ccccc1)[C@H](O)CN[C@H]1CC2(CCC2)Oc2ccc(Br)cc21)c1ccno1 [Example 162, N-((1S,2R)-3-(((4S)-6-bromo-3,4-dihydrospiro[chromene-2,1′-cyclobutan]-4-yl)amino)-2-hydroxy-1-(phenylmethyl)propyl)-5-isoxazolecarboxamide]
CCc1ccc2c(c1)[C@@H](NC[C@@H](O)[C@H](Cc1ccccc1)NC(=O)c1ccnc(N3CCCCC3)c1)CC1(CCCC1)O2 [Example 167, N-((2S,3R)-4-((S)-6-ethyl-2,2-spirocyclopentylchroman-4-ylamino)-3-hydroxy-1-phenylbutan-2-yl)-2-(piperidin-1-yl)isonicotinamide]
CCc1ccc2c(c1)[C@@H](NC[C@@H](O)[C@H](Cc1ccccc1)NC(=O)c1ccnc(N3CCOCC3)c1)CC1(CCCC1)O2 [Example 169, N-((2S,3R)-4-((S)-6-ethyl-2,2-spirocyclopentylchroman-4-ylamino)-3-hydroxy-1-phenylbutan-2-yl)-2-morpholinoisonicotinamide]
